US8207169B2, “Substituted [1,2,4]triazolo[4′,3′:1,6]pyrido[2,3-b]pyrazines of the formula D” (MSD K.K., priority 2008, dated 2012)

What was measured:
[1] = target: T1, Akt1 kinase (Homo sapiens, UniProt P31749); test: Akt kinase assay (HTRF, GSK-derived biotinylated peptide substrate); assay type: biochemical; conditions: activated Akt1 kinase
T1 construct: a middle T tag was added to the 5′ end of the full length Akt1 gene; biotin tag (from pS2neo vector); made in house; host or cells: Drosophila S2 cells
T1 sequence (P31749 whole entry): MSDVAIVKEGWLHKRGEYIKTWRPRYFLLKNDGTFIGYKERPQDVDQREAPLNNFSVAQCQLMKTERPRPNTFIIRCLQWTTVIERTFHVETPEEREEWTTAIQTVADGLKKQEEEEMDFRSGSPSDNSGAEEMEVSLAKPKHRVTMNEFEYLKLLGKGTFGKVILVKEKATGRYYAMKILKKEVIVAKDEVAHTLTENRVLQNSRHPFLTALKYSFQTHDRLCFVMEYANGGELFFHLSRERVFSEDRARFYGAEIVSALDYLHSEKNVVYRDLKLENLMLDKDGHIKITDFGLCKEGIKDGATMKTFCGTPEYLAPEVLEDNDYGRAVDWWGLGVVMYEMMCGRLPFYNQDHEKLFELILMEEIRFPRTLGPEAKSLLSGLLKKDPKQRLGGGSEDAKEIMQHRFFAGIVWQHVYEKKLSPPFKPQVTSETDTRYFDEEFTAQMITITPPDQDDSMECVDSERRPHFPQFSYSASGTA
Experimental: (§1) Activated Akt isoforms and pleckstrin homology domain deletion constructs were assayed utilizing a GSK-derived biotinylated peptide substrate. The extent of peptide phosphorylation was determined by Homogeneous Time Resolved Fluorescence (HTRF) using a lanthanide chelate(Lance)-coupled monoclonal antibody specific for the phosphopeptide in combination with a streptavidin-linked allophycocyanin (SA-APC) fluorophore which will bind to the biotin moiety on the peptide. When the Lance and APC are in proximity (i.e. bound to the same phosphopeptide molecule), a non-radiative energy transfer takes place from the Lance to the APC, followed by emission of light from APC at 665 nm.
(§2) Materials Required for the Assay:
(§3) A. Activated Akt isozyme or pleckstrin homology domain deleted construct
(§4) B. Akt peptide substrate: GSK3α (S21) Peptide #3928 biotin-GGRARTSSFAEPG (SEQ. ID. NO.:15), Macromolecular Resources.
(§5) C. Lance labeled anti-phospho GSK3α monoclonal antibody (Cell Signaling Technology, clone #27).
(§6) D. SA-APC (Prozyme catalog no. MS lot #896067).
(§7) E. Microfluor®B U Bottom Microtiter Plates (Dynex Technologies, Catalog no. 7205).
(§8) F. Discovery® HTRF Microplate Analyzer, Packard Instrument Company.
(§9) G. 100× Protease Inhibitor Cocktail (PIC): 1 mg/mL benzamidine, 0.5 mg/mL pepstatin, 0.5 mg/mL leupeptin, 0.5 mg/mL aprotinin.
(§10) H. 10× Assay Buffer: 500 mM HEPES, pH 7.5, 1% PEG, […], 1 mM EGTA, 1% BSA, 20 mM ∂-Glycerol phosphate.
(§11) I. Quench Buffer: 50 mM HEPES pH 7.3, 16.6 mM EDTA, 0.1% BSA, 0.1% Triton X-100, 0.17 nM Lance labeled monoclonal antibody clone #27, 0.0067 mg/mL SA-APC
(§12) J. ATP/MgCl2 working solution: 1× Assay buffer, 1 mM DTT, 1×PIC, 125 mM KCl, 5% Glycerol, 25 mM MgCl2, 375 μM ATP
(§13) K. Enzyme working solution: 1× Assay buffer, 1 mM DTT, 1×PIC, 5% Glycerol, active Akt. The final enzyme concentrations were selected so that the assay was in a linear response range.
(§14) L. Peptide working solution: 1× Assay buffer, 1 mM DTT, 1×PIC, 5% Glycerol, 2 μM GSK3 biotinylated peptide #3928
(§15) The reaction is assembled by adding […] of the ATP/MgCl2 working solution to the appropriate wells of a 96-well microtiter plate. Inhibitor or vehicle (1.0 μL) is added followed by 10 μL of peptide working solution. The reaction is started by adding 13 μl, of the enzyme working solution and mixing. The reaction is allowed to proceed for 50 min and then stopped by the addition of 60 μL, HTRF quench buffer. The stopped reactions were incubated at room temperature for at least 30 min and then read on the Discovery instrument.

[2] = target: T2, Akt2 kinase (Homo sapiens, UniProt P31751); test: as above; assay type: biochemical; conditions: activated Akt2 kinase
T2 construct: a middle T tag was added to the 5′ end of the full length Akt2 using the PCR primer; biotin tag (from pS2neo vector); made in house; host or cells: Drosophila S2 cells
T2 sequence (P31751 whole entry): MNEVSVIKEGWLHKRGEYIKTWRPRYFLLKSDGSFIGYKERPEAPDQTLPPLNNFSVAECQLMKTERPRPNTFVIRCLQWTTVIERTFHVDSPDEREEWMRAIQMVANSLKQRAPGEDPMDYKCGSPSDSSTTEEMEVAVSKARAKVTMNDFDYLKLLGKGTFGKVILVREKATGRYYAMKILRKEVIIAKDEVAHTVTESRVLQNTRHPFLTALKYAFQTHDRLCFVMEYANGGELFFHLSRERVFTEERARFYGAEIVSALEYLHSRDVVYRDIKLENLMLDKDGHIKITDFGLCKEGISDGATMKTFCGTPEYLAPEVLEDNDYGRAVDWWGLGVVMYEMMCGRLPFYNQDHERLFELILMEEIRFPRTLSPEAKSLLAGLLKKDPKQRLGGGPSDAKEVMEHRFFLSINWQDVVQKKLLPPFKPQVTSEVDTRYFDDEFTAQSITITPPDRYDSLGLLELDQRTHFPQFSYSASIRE
Experimental: as §1, §2, §3, §4, §5, §6, §7, §8, §9, §10, §11, §12, §13, §14, §15

Compound | IC50 [1] [nM] | IC50 [2] [nM]
C[C@]1(O)C[C@@](N)(c2ccc(-c3nc4ccc5nnc(-c6cccnc6)n5c4nc3-c3ccccc3)cc2)C1 [EXAMPLE 3-7, trans-3-amino-1-methyl-3-{4-[2-phenyl-9-(3-pyridinyl)[1,2,4]triazolo-[4′,3′:1,6]pyrido[2,3-b]pyrazin-3-yl]phenyl}cyclobutanol] | 0.4 | 4
NC1(c2ccc(-c3nc4ccc5nnc(CCC(F)(F)F)n5c4nc3-c3ccccc3)cc2)CC(O)(C2CC2)C1 (stereo not drawn) [EXAMPLE 3-20, trans-3-amino-1-cyclopropyl-3-{4-[2-phenyl-9-(3,3,3-trifluoropropyl)[1,2,4]triazolo[4′,3′:1,6]pyrido[2,3-b]pyrazin-3-yl]phenyl}cyclobutanol] | 0.5 | 6.3
N[C@]1(c2ccc(-c3nc4ccc5nnc(-c6ccc(O)cc6)n5c4nc3-c3ccccc3)cc2)C[C@](O)(C2CC2)C1 [EXAMPLE 3-14, 4-{3-[4-(trans-1-amino-3-cyclopropyl-3-hydroxycyclobutyl)phenyl]-2-phenyl[1,2,4]triazolo[4′,3′:1,6]pyrido[2,3-b]pyrazin-9-yl]phenol] | 0.3 | 11
Cc1nc(-c2nnc3c4cc(-c5ccccc5)c(-c5ccc(C6(N)CC(F)(F)C6)cc5)nc4ccn23)n[nH]1 [EXAMPLE 5-16, 3,3-difluoro-1-{4-[3-(5-methyl-1H-1,2,4-triazol-3-yl)-9-phenyl[1,2,4]triazolo[3,4-f]-1,6-naphthyridin-8-yl]phenyl}cyclobutanamine] | 4.7 | 84.3
N[C@]1(c2ccc(-c3nc4ccn5c(-c6ncccn6)nnc5c4cc3-c3ccccc3)cc2)C[C@](O)(C2CC2)C1 [EXAMPLE 2-14, trans-3-amino-1-cyclopropyl-3-{-4-[9-phenyl-3-(2-pyrimidinyl)-[1,2,4]triazolo[3,4-f]-1,6-naphthyridin-8-yl]phenyl}cyclobutanol] | 0.3 | 4
NC1(c2ccc(-c3nc4ccn5c(-c6ncccn6)nnc5c4cc3-c3ccccc3)cc2)CC(F)(F)C1 [EXAMPLE 2-10, 3,3-difluoro-1-{4-[9-phenyl-3-(2-pyrimidinyl)[1,2,4]triazolo[3,4-f]-1,6-naphthyridin-8-yl]phenyl}cyclobutanamine] | 6 | 44.4
